Earlier results, collected in patent US20070292393A1, “USE OF THYMOSIN ALPHA 1 FOR PREPARING A MEDICAMENT FOR THE TREATMENT OF STAGE IV MALIGNANT MELANOMA” (SIGMA-TAU INDUSTRIE FARMACEUTICHE RIUNITE S.P.A., priority 2006, published 2007).

Tested on: metastatic melanoma

CN(C)/N=N/c1[nH]cnc1C(N)=O [DTIC, Dacarbazine]
effect of responses on patients' overall survival: no evidence
actual overall responses to DTIC (recent publications (J Clin Oncol, ASCO 2004)): 5.5-6.8%
duration of responses (responses short-lived): three to six
